Results from article PMC4624780 (PLoS ONE, 2015).
Entries after “also recorded” stand apart in the source; their conditions may differ. Square brackets hold non-standard residues; d marks the D form. Peptide text beside a SMILES is read from it. Ahx = NCCCCCC(=O)O

Tested on: FMDV 3A protein homodimerization in BHK-21 cells
Assay type: cell-based, foot-and-mouth disease virus (FMDV)

Compound	3A dimerization (PLA fluorescent dots relative to cells incubated with no peptide)
CC[C@H](C)[C@H](NC(=O)[C@H](CC(C)C)NC(=O)[C@@H]1CCCN1C(=O)[C@H](CCCNC(=N)N)NC(=O)[C@H](CC(C)C)NC(=O)[C@H](CCC(=O)O)NC(=O)CCCCCNC(=O)[C@H](CCCNC(=N)N)NC(=O)[C@H](CCCNC(=N)N)NC(=O)[C@H](CCCNC(=N)N)NC(=O)[C@H](CCCNC(=N)N)NC(=O)[C@H](CCCNC(=N)N)NC(=O)[C@H](CCCNC(=N)N)NC(=O)[C@@H](N)CCCNC(=N)N)C(=O)N[C@@H](CCC(N)=O)C(=O)N[C@@H](CCC(N)=O)C(N)=O [Peptide R7-α2] (H-RRRRRRR[Ahx]ELRPLIQQ-NH2; N-terminus assumed)	lack of effect
RRRRRRRXFFEGMVHDS [Peptide R7-α1]	decreasing trend; also recorded: higher inhibitions
